Results from PubChem BioAssay (NCI).
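Dose response: 5 concentrations. Exposure: 48 h. Format: 96-well plates. Endpoint: linear interpolation; highest concentration if not reached. At the GI50, growth is halved. The concentration for full growth arrest is given as TGI.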

Legend:
Experiment in all cases: NCI anticancer screen, dose series, 48 h
HL-60(TB) leukemia = test system: HL-60(TB) leukemia
SK-MEL-28 melanoma = test system: SK-MEL-28 melanoma
MDA-MB-435 = test system: MDA-MB-435
HOP-62 NSCLC = test system: HOP-62 NSCLC
DU-145 prostate = test system: DU-145 prostate
U251 CNS = test system: U251 CNS
CCRF-CEM leukemia = test system: CCRF-CEM leukemia
MALME-3M melanoma = test system: MALME-3M melanoma
SR leukemia = test system: SR leukemia
SNB-19 CNS = test system: SNB-19 CNS
HCT-15 colon = test system: HCT-15 colon
SF-539 CNS = test system: SF-539 CNS
OVCAR-5 ovarian = test system: OVCAR-5 ovarian
OVCAR-4 ovarian = test system: OVCAR-4 ovarian
UACC-257 melanoma = test system: UACC-257 melanoma
UO-31 renal = test system: UO-31 renal
KM12 colon = test system: KM12 colon
NCI-H226 lung = test system: NCI-H226 lung
OVCAR-3 ovarian = test system: OVCAR-3 ovarian
CAKI-1 renal = test system: CAKI-1 renal
HCT-116 colon = test system: HCT-116 colon
A549 NSCLC = test system: A549 NSCLC
COLO 205 colon = test system: COLO 205 colon
PC-3 prostate = test system: PC-3 prostate
BT-549 breast = test system: BT-549 breast
SF-295 CNS = test system: SF-295 CNS
HOP-92 NSCLC = test system: HOP-92 NSCLC
RXF 393 renal = test system: RXF 393 renal
EKVX NSCLC = test system: EKVX NSCLC
OVCAR-8 ovarian = test system: OVCAR-8 ovarian
MOLT-4 leukemia = test system: MOLT-4 leukemia
786-0 renal = test system: 786-0 renal
HT29 colon = test system: HT29 colon
LOX IMVI melanoma = test system: LOX IMVI melanoma
MDA-MB-231 breast = test system: MDA-MB-231 breast
HCC-2998 colon = test system: HCC-2998 colon
UACC-62 melanoma = test system: UACC-62 melanoma
NCI-H522 lung = test system: NCI-H522 lung
SK-MEL-5 melanoma = test system: SK-MEL-5 melanoma
NCI-H23 lung = test system: NCI-H23 lung
SNB-75 CNS = test system: SNB-75 CNS
K-562 leukemia = test system: K-562 leukemia
SW-620 colon = test system: SW-620 colon
ACHN renal = test system: ACHN renal
IGROV1 ovarian = test system: IGROV1 ovarian
T-47D breast = test system: T-47D breast
RPMI-8226 leukemia = test system: RPMI-8226 leukemia
M14 melanoma = test system: M14 melanoma
HS 578T breast = test system: HS 578T breast
SF-268 CNS = test system: SF-268 CNS
TK-10 renal = test system: TK-10 renal
MCF7 breast = test system: MCF7 breast
SK-MEL-2 melanoma = test system: SK-MEL-2 melanoma
A498 renal = test system: A498 renal
SK-OV-3 ovarian = test system: SK-OV-3 ovarian
NCI/ADR-RES ovarian = test system: NCI/ADR-RES ovarian
NCI-H460 lung = test system: NCI-H460 lung
SN12C renal = test system: SN12C renal

## COc1cc(Nc2ncc3c(C)nc(-c4cccc(C(F)(F)F)c4)n3n2)cc(OC)c1OC
HL-60(TB) leukemia
  GI50: 6.91 µM
  TGI: 16 µM
SK-MEL-28 melanoma
  GI50: 4.44 µM
  TGI: 8.25 µM
MDA-MB-435
  GI50: 2.58 µM
  TGI: 5.78 µM
HOP-62 NSCLC
  GI50: 3.84 µM
  TGI: 7.51 µM
DU-145 prostate
  GI50: 3.13 µM
  TGI: 6.26 µM
U251 CNS
  GI50: 3.71 µM
  TGI: 7.06 µM
CCRF-CEM leukemia
  GI50: 5.87 µM
  TGI: 19 µM
MALME-3M melanoma
  GI50: 4.39 µM
  TGI: 9.17 µM
SR leukemia
  GI50: 6.36 µM
  TGI: 17.5 µM
SNB-19 CNS
  GI50: 4.64 µM
  TGI: 8.51 µM
HCT-15 colon
  GI50: 3.78 µM
  TGI: 8.2 µM
SF-539 CNS
  GI50: 3.98 µM
  TGI: 8.34 µM
OVCAR-5 ovarian
  GI50: 3.65 µM
  TGI: 7.5 µM
OVCAR-4 ovarian
  GI50: 4.48 µM
  TGI: 9.81 µM
UACC-257 melanoma
  GI50: 3.88 µM
  TGI: 7.46 µM
UO-31 renal
  GI50: 1.82 µM
  TGI: 6.18 µM
KM12 colon
  GI50: 3.05 µM
  TGI: 6.23 µM
NCI-H226 lung
  GI50: 4.14 µM
  TGI: 7.72 µM
OVCAR-3 ovarian
  GI50: 4.28 µM
  TGI: 7.72 µM
CAKI-1 renal
  GI50: 0.747 µM
  TGI: 13.6 µM
HCT-116 colon
  GI50: 3.49 µM
  TGI: 6.73 µM
A549 NSCLC
  GI50: 3.51 µM
  TGI: 6.98 µM
COLO 205 colon
  GI50: 4.07 µM
  TGI: 7.49 µM
PC-3 prostate
  GI50: 4.32 µM
  TGI: 10.6 µM
BT-549 breast
  GI50: 4.05 µM
  TGI: 8.03 µM
SF-295 CNS
  GI50: 3.86 µM
  TGI: 8.15 µM
HOP-92 NSCLC
  GI50: 1.74 µM
  TGI: 5.99 µM
RXF 393 renal
  GI50: 1.81 µM
  TGI: 5.42 µM
EKVX NSCLC
  GI50: 4.19 µM
  TGI: 8 µM
OVCAR-8 ovarian
  GI50: 4.09 µM
  TGI: 8.91 µM
MOLT-4 leukemia
  GI50: 6.85 µM
  TGI: 15.4 µM
786-0 renal
  GI50: 3.96 µM
  TGI: 7.92 µM
HT29 colon
  GI50: 4.15 µM
  TGI: 7.69 µM
LOX IMVI melanoma
  GI50: 3.74 µM
  TGI: 7.58 µM
MDA-MB-231 breast
  GI50: 3.33 µM
  TGI: 6.97 µM
HCC-2998 colon
  GI50: 4.01 µM
  TGI: 7.86 µM
UACC-62 melanoma
  GI50: 3.15 µM
  TGI: 6.34 µM
NCI-H522 lung
  GI50: 4.18 µM
  TGI: 8.12 µM
SK-MEL-5 melanoma
  GI50: 3.32 µM
  TGI: 6.51 µM
NCI-H23 lung
  GI50: 4.07 µM
  TGI: 8.61 µM
SNB-75 CNS
  GI50: 3.09 µM
  TGI: 8.42 µM
K-562 leukemia
  GI50: 6.62 µM
  TGI: 19.6 µM
SW-620 colon
  GI50: 3.72 µM
  TGI: 7.62 µM
ACHN renal
  GI50: 1.95 µM
  TGI: 5.78 µM
IGROV1 ovarian
  GI50: 3.49 µM
  TGI: 11.2 µM
T-47D breast
  GI50: 2.95 µM
  TGI: 6.58 µM
RPMI-8226 leukemia
  GI50: 6.45 µM
  TGI: 19.7 µM
M14 melanoma
  GI50: 4.03 µM
  TGI: 8.07 µM
HS 578T breast
  GI50: 3.77 µM
  TGI: 13.6 µM
SF-268 CNS
  GI50: 4.19 µM
  TGI: 8.1 µM
TK-10 renal
  GI50: 2.98 µM
  TGI: 6.19 µM
MCF7 breast
  GI50: 4.14 µM
  TGI: 7.82 µM
SK-MEL-2 melanoma
  GI50: 3.25 µM
  TGI: 7.28 µM
A498 renal
  GI50: 0.305 µM
  TGI: 5.86 µM
SK-OV-3 ovarian
  GI50: 2.24 µM
  TGI: 6.86 µM
NCI/ADR-RES ovarian
  GI50: 4.23 µM
  TGI: 11 µM
NCI-H460 lung
  GI50: 4.46 µM
  TGI: 13.6 µM
SN12C renal
  GI50: 3.54 µM
  TGI: 7.14 µM
